According to patent US20050187240A1, “Aaptamine and isoaaptamine and structural modifications thereof” (The Arizona Board of Regents, Acting for and on behalf of …, priority 2004, published 2005):
Read-outs that look alike come from different tables or passages of the source.

Legend:
colon KM 20L2 = assay: Cancer cell growth inhibition, colon KM 20L2; type: cell-based, human; details: Homo sapiens, colon KM 20L2
Excerpt: (§1) Evaluation of demethyloxyaaptamine (3), aaptamine (1), isoaaptamine (2) and hystatin 1 (11) against the Arizona State University Cancer Research Institute's human tumor cell line panel (Table 1) and the NCI 60-cell line human tumor screen were undertaken. (Boyd, M. R., Cancer: Principles and Practices of Oncology Updates; DeVita, et al., Eds; Lippincott: Philadelphia, 1989, Vol. 10, No. 3, pp. 1-12; Boyd, et al., Drug Development Research 1995, 34, 91-109; Boyd, M. R., et al. Cytotoxic Anticancer Drugs: Models and Concepts for Drug Discovery and Development; Valeriote, A., et al., Eds, Kluwer Academic Publishers: Amsterdam, 1992, pp. 11-34.)
(§2) Biology The cancer cell growth inhibitory properties were examined using the murine P388 lymphocytic leukemia cell line and a selection of human cancer cell lines.
(§3) All of the synthetic products were evaluated against a minipanel of human cancer cell lines, the murine P388 lymphocytic leukemia cell line and a selection of microorganisms.

Micrococcus luteus = assay: Broth microdilution susceptibility assay, Micrococcus luteus; type: cell-based; details: for MIC: Table 4, read-out: Range of minimum inhibitory concentration; for Range of minimum inhibitory concentration: Table 6
Candida albicans = assay: Broth microdilution susceptibility assay, Candida albicans; type: cell-based; details: for MIC: Table 4, read-out: Range of minimum inhibitory concentration; for Range of minimum inhibitory concentration: Table 6
Enterobacter cloacae = assay: Broth microdilution susceptibility assay, Enterobacter cloacae; type: cell-based; details: for MIC: Table 4, read-out: Range of minimum inhibitory concentration
CNS SF-268 = assay: Cancer cell growth inhibition, CNS SF-268; type: cell-based, human; details: Homo sapiens, CNS SF-268
Method: as §2, §3

[1] = test system: murine P388 lymphocytic leukemia cell line; assay: Cancer cell growth inhibition, murine P388 lymphocytic leukemia cell line; type: cell-based; details: for IC50: Mus musculus
Excerpt: as §1, §2, §3

Streptococcus pneumoniae = assay: Broth microdilution susceptibility assay, Streptococcus pneumoniae; type: cell-based; details: for MIC: Table 4, read-out: Range of minimum inhibitory concentration; for Range of minimum inhibitory concentration: Table 6
lung NCI-H460 = assay: Cancer cell growth inhibition, lung NCI-H460; type: cell-based, human; details: Homo sapiens, lung NCI-H460
Excerpt: as §1, §2, §3

pancreas BXPC-3 = assay: Cancer cell growth inhibition, pancreas BXPC-3; type: cell-based, human; details: Homo sapiens, pancreas BXPC-3
Method: as §2, §3

prostrate DU-145 = assay: Cancer cell growth inhibition, prostate DU-145; type: cell-based, human; details: Homo sapiens
Method: as §2, §3

breast MCF-7 = assay: Cancer cell growth inhibition, breast MCF-7; type: cell-based, human; details: Homo sapiens, MCF7, breast MCF-7
Method: as §2, §3

Neisseria gonorrhoeae = assay: Broth microdilution susceptibility assay, Neisseria gonorrhoeae; type: cell-based; details: for MIC: Table 4, read-out: Range of minimum inhibitory concentration; for Range of minimum inhibitory concentration: Table 6
Staphylococcus aureus = assay: Broth microdilution susceptibility assay, Staphylococcus aureus; type: cell-based; details: for MIC: Table 4, read-out: Range of minimum inhibitory concentration; for Range of minimum inhibitory concentration: Table 6
Escherichia coli = assay: Broth microdilution susceptibility assay, Escherichia coli; type: cell-based; details: for MIC: Table 4, read-out: Range of minimum inhibitory concentration; for Range of minimum inhibitory concentration: Table 6
[2] = test system: Stenotrophomonas maltophilia; assay: Broth microdilution susceptibility assay, Stenotrophomonas maltophilia; type: cell-based; details: for MIC: Table 4, Stenotrophomonas maltophil, read-out: Range of minimum inhibitory concentration; for Range of minimum inhibitory concentration: Table 6
Cryptococcus neoformans = assay: Broth microdilution susceptibility assay, Cryptococcus neoformans; type: cell-based; details: for MIC: Table 4, read-out: Range of minimum inhibitory concentration; for Range of minimum inhibitory concentration: Table 6
Enterococcus faecalis = assay: Broth microdilution susceptibility assay, Enterococcus faecalis; type: cell-based; details: for MIC: Table 4, read-out: Range of minimum inhibitory concentration
PKC alpha = PKC alpha (Homo sapiens, UniProt P17252); assay: Inhibition of PKC catalytic activity (peptide substrate phosphorylation); type: biochemical; details: 30 μM compound; 1 μM phorbol 12-myristate 13-acetate, 100 μg/ml phospholipid; mean±SEM, three experiments; read-out: percent inhibition of PKC catalytic activity
Excerpt: We further evaluated the ability of the derivatives to inhibit PKC catalytic activity. […] Inhibition by 10c was 19.5±7.6% and inhibition by 4, 5, and 9a, b, c was 6% or less (all values are mean±SEM, three experiments). […] In both cases, the inhibition curves were steeper than predicted for a competitive inhibitor, consistent with a complicated mechanism of action (Hill coefficients for 10a and 10b of 1.5±0.1 and 2.0±0.5, respectively).

[3] = Table 3, read-out: Cancer cell growth inhibitory ED50
[4] = P388, Table 3, leukemia P-388, read-out: Cancer cell growth inhibitory ED50
[5] = Table 3, prostrate DU-145, read-out: Cancer cell growth inhibitory ED50
[6] = Table 5, read-out: Cancer Cell Line Results ED50
[7] = Table 5, leukemia P388, read-out: Cancer Cell Line Results ED50
[8] = DU-145, Table 5, prostate DRU-145, read-out: Cancer Cell Line Results ED50

IC50 (colon KM 20L2; [3]) [µg/mL] | MIC (Micrococcus luteus) [µg/mL] | MIC (Candida albicans) [µg/mL] | MIC (Enterobacter cloacae) [µg/mL] | IC50 (CNS SF-268; [3]) [µg/mL] | IC50 [1, 4] [µg/mL] | MIC (Streptococcus pneumoniae) [µg/mL] | IC50 (lung NCI-H460; [3]) [µg/mL] | IC50 (pancreas BXPC-3; [3]) [µg/mL] | IC50 (prostrate DU-145; [5]) [µg/mL] | IC50 (breast MCF-7; [3]) [µg/mL] | MIC (Neisseria gonorrhoeae) [µg/mL] | IC50 (colon KM 20L2; [6]) [µg/mL] | IC50 (CNS SF-268; [6]) [µg/mL] | IC50 [1, 7] [µg/mL] | IC50 (lung NCI-H460; [6]) [µg/mL] | IC50 (pancreas BXPC-3; [6]) [µg/mL] | IC50 (prostrate DU-145; [8]) [µg/mL] | IC50 (breast MCF-7; [6]) [µg/mL] | inhibition at 30 µM (PKC alpha) [%] | Structure (SMILES) | other results
5.4 | 4 to 8 | > 64 | > 64 | 5.9 | 3.1 | > 64 | 4.6 | 7 | 7.5 | 8 | 64 |  |  |  |  |  |  |  |  | COc1ccc(CN2C=Cc3cc(OC)c(OC)c4c3c2cc[n+]4C)cc1.[I-] [Compound 17, 1-Methyl-4-(4-methoxybenzyl)-8,9-dimethoxy-4H-benzo[de][1,6]-naphthyridin-1-ium iodide] | MIC (Staphylococcus aureus): > 64 µg/mL; MIC (Escherichia coli): > 64 µg/mL; MIC [2]: > 64 µg/mL; MIC (Cryptococcus neoformans): > 64 µg/mL; MIC (Enterococcus faecalis): > 64 µg/mL
 |  |  |  |  |  |  |  |  |  |  |  | 3.4 | > 10 | 4.64 | > 10 | > 10 | > 10 | > 10 | ≤ 6 | COc1cc(CN2C=Cc3cc(OC)c(OC)c4nccc2c34)cc(OC)c1OC.Cl [Compound 9c, 8,9-Dimethoxy-4-(3,4,5-trimethoxybenzyl)-4H-benzo[de][1,6]naphthyridine hydrochloride] | Range of minimum inhibitory concentration (Micrococcus luteus): * (no inhibition at 64 μg/mL); Range of minimum inhibitory concentration (Candida albicans): * (no inhibition at 64 μg/mL); Range of minimum inhibitory concentration (Streptococcus pneumoniae): * (no inhibition at 64 μg/mL); melting point: 198 to 200 °C (dec.); Range of minimum inhibitory concentration (Neisseria gonorrhoeae): 64 µg/mL; Range of minimum inhibitory concentration (Staphylococcus aureus): * (no inhibition at 64 μg/mL); Range of minimum inhibitory concentration (Escherichia coli): * (no inhibition at 64 μg/mL); Range of minimum inhibitory concentration [2]: * (no inhibition at 64 μg/mL); Range of minimum inhibitory concentration (Cryptococcus neoformans): * (no inhibition at 64 μg/mL)
6.1 | 16 to 32 | > 64 | > 64 | 0.69 | 3.9 | > 64 | > 10 | 7.1 | 3.5 | 4.9 | > 64 | 6.1 | 0.69 | 3.89 | > 10 | 7.1 | 3.5 | 4.9 | ≤ 6 | COc1cc2c3c(cc[n+](C)c3c1OC)N(C)C=C2.[I-] [Compound 5, 1,4-Dimethyl-8,9-dimethoxy-4H-benzo-[de][1,6]naphthyridin-1-ium iodide] | P388 ED50 ([1]; murine P388): 3.9 µg/mL; MIC (Staphylococcus aureus): > 64 µg/mL; MIC (Escherichia coli): > 64 µg/mL; MIC [2]: > 64 µg/mL; MIC (Cryptococcus neoformans): > 64 µg/mL; MIC (Enterococcus faecalis): > 64 µg/mL

Structure (SMILES) | IC50 (colon KM 20L2; [3]) [µg/mL] | MIC (Micrococcus luteus) [µg/mL] | MIC (Candida albicans) [µg/mL] | MIC (Enterobacter cloacae) [µg/mL] | IC50 (CNS SF-268; [3]) [µg/mL] | IC50 [1, 4] [µg/mL] | MIC (Streptococcus pneumoniae) [µg/mL] | IC50 (lung NCI-H460; [3]) [µg/mL] | IC50 (pancreas BXPC-3; [3]) [µg/mL] | IC50 (prostrate DU-145; [5]) [µg/mL] | IC50 (breast MCF-7; [3]) [µg/mL] | MIC (Neisseria gonorrhoeae) [µg/mL] | IC50 (colon KM 20L2; [6]) [µg/mL] | IC50 (CNS SF-268; [6]) [µg/mL] | IC50 [1, 7] [µg/mL] | IC50 (lung NCI-H460; [6]) [µg/mL] | IC50 (pancreas BXPC-3; [6]) [µg/mL] | IC50 (prostrate DU-145; [8]) [µg/mL] | IC50 (breast MCF-7; [6]) [µg/mL] | inhibition at 30 µM (PKC alpha) [%] | other results
COc1cc(CN2C=Cc3cc(OC)c(OC)c4c3c2cc[n+]4Cc2cc(OC)c(OC)c(OC)c2)cc(OC)c1OC.[Br-] [Compound 10c, 8,9-Dimethoxy-1,4-bis-(3,4,5-trimethoxy-benzyl)-4H-benzo[de][1,6]-naphthyridin-1-ium bromide] |  |  |  |  |  |  |  |  |  |  |  |  | > 10 | > 10 | > 10 | > 10 | > 10 | > 10 | > 10 | 19.5 ± 7.6 | Range of minimum inhibitory concentration (Micrococcus luteus): 64 µg/mL; Range of minimum inhibitory concentration (Candida albicans): * (no inhibition at 64 μg/mL); Range of minimum inhibitory concentration (Enterobacter cloacae; Table 6): * (no inhibition at 64 μg/mL); Range of minimum inhibitory concentration (Streptococcus pneumoniae): * (no inhibition at 64 μg/mL); melting point: 116 to 118 °C; Range of minimum inhibitory concentration (Neisseria gonorrhoeae): * (no inhibition at 64 μg/mL); Range of minimum inhibitory concentration (Staphylococcus aureus): * (no inhibition at 64 μg/mL); Range of minimum inhibitory concentration (Escherichia coli): * (no inhibition at 64 μg/mL); Range of minimum inhibitory concentration [2]: * (no inhibition at 64 μg/mL); Range of minimum inhibitory concentration (Cryptococcus neoformans): * (no inhibition at 64 μg/mL); Range of minimum inhibitory concentration (Enterococcus faecalis; Table 6): * (no inhibition at 64 μg/mL)
